Source: patent US6391261B1, “Device for detecting analytes related to sample pH” (Lifepoint, Inc., priority 2000, dated 2002)

Test system: cocaine antibody
Experiment: Cross-reactivity of the antibody used in the lateral flow competitive immunoassay for cocaine
Assay type: binding
Settings: dye labeled cocaine antibody of the saliva test cassette
Description: Each rapid oral fluid test cassette 70 included in this test kit consists of a lateral flow assay strip, a color intensity chart 78, a pH test section 82, and a pH chart 80. The lateral flow assay strip consists of color dye labeled cocaine antibody and a nitrocellulose membrane coated with cocaine-Bovine Serum […] (“BSA”) conjugate. When a saliva sample is applied to the sample section of the cassette, the saliva sample will migrate by capillary movement to the dye-antibody zone and the cocaine-BSA membrane zone. If the sample tested is negative, the dye-antibody will bind with the membrane cocaine-BSA conjugate to form a red band on the membrane.
If the sample tested contains cocaine, cocaine in the sample will bind with the dye-antibody, and thus the binding between the dye-antibody and the membrane cocaine-BSA is prevented. The unbound dye-antibody will migrate away from the membrane to an absorbent pad. As a result, the intensity of the color band appearing on the membrane is inversely proportional to the concentration of cocaine in the saliva sample. A semi-quantitative result of cocaine concentration in the saliva sample is achieved by comparing the color band with a color intensity chart.

Molecule: CN1[C@H]2CC[C@@H]1[C@@H](C(=O)O)[C@@H](OC(=O)c1ccccc1)C2 [benzoylecgonine]
- cross-reactivity of the assay antibody as compared with cocaine: less than 5%

Molecule: COc1ccc2c3c1O[C@H]1[C@@H](O)C=C[C@H]4[C@@H](C2)N(C)CC[C@@]341 [codeine]
- cross-reactivity of the assay antibody as compared with cocaine: No significant cross-reactivity

Molecule: CCO [ethanol]
- cross-reactivity of the assay antibody as compared with cocaine: No significant cross-reactivity

Molecule: CN[C@@H](C)Cc1ccccc1 [methamphetamine]
- cross-reactivity of the assay antibody as compared with cocaine: No significant cross-reactivity

Molecule: CN1CC[C@]23c4c5ccc(O)c4O[C@H]2[C@@H](O)C=C[C@H]3[C@H]1C5 [morphine]
- cross-reactivity of the assay antibody as compared with cocaine: No significant cross-reactivity

Molecule: c1ccc(C2(N3CCCCC3)CCCCC2)cc1 [phencyclidine]
- cross-reactivity of the assay antibody as compared with cocaine: No significant cross-reactivity

Molecule: tetrahydrocannabinols
- cross-reactivity of the assay antibody as compared with cocaine: No significant cross-reactivity
